Usually IC50 stands for the midpoint of a concentration-inhibition curve.

For the experiment, the target named is KRasG12C (M1-K169, biotinylated on the N-terminus) (Homo sapiens (Human), UniProt P01116, G12C). Description: Covalent competition assay: scintillation proximity assay (SPA) quantifying covalent modification of KRASG12C. Type of experiment: binding. Particulars: competition with radiolabeled covalent probe (Compound B/Compound A), 2 hours incubation, 10 nM KRasG12C. A digest of the protocol:
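Scintillation proximity readout after streptavidin bead capture (30 min) of biotinylated KRasG12C(M1-K169):GDP, 10 nM final, which was covalently labelled over 2 h by 25 nM radio-probe plus 475 nM cold probe unless blocked by compound.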
(In general: SPA uses beads or plates that emit light when radiolabelled molecules are held near them.)
As to `C=CC(=O)N1CC2(CC(n3nc(N4CCn5nccc5C4(C)C)c(-c4c(Cl)c(C)cc5[nH]ncc45)c3C)C2)C1` (single isomer, unassigned) [Example 101b, 1-(6-(4-(5-chloro-6-methyl-1H-indazol-4-yl)-3-(4,4-dimethyl-6,7-dihydropyrazolo[1,5-a]pyrazin-5(4H)-yl)-5-methyl-1H-pyrazol-1-yl)-2-azaspiro[3.3]heptan-2-yl)prop-2-en-1-one], the IC50 amounted to 103 nM.

Take `C=CC(=O)N1CC2(CC(n3nc(N4CCN(C[C@@H]5COCCO5)C[C@]4(C)COC)c(-c4c(Cl)c(C)cc5[nH]ncc45)c3C)C2)C1` (single isomer, unassigned) [Example 181a]: the IC50 worked out at 929 nM.

For the compound `C=CC(=O)N1CC2(CC(n3nc(N4CC[C@@H](CN5CCOCC56COC6)CC4(C)C)c(-c4c(C)c(Cl)cc5[nH]ncc45)c3C)C2)C1` (single isomer, unassigned) [Example 302a], the half-maximal inhibitory concentration (IC50) is above 5000 nM.

For the compound `C=CC(=O)N1CC2(CC(n3nc(N4CC[C@@H](CN5CCN(C(=O)CO)CC5)CC4(C)C)c(-c4c(Cl)c(Cl)cc5[nH]ncc45)c3C)C2)C1` (single isomer, unassigned) [Example 310a], the IC50 was 2900 nM.

With `C=CC(=O)N1CC2(CC(n3nc(N4CCC(C(=O)N5CCN(C)CC5)CC4(C)C)c(-c4c(Cl)c(Cl)cc5[nH]ncc45)c3C)C2)C1` (single isomer, unassigned) [Example 211b, 1-(6-(4-(5,6-dichloro-1H-indazol-4-yl)-3-(2,2-dimethyl-4-(4-methylpiperazine-1-carbonyl)piperidin-1-yl)-5-methyl-1H-pyrazol-1-yl)-2-azaspiro[3.3]heptan-2-yl)prop-2-en-1-one], the IC50 came out at 8 nM.

Take `C=CC(=O)N1CC2(CC(n3nc(N4CC[C@@H](CN5CCN(C6COC6)CC5)CC4(C)C)c(-c4c(Cl)c(Cl)cc5[nH]ncc45)c3C)C2)C1` (single isomer, unassigned) [Example 243a]: the IC50 turned out to be 3800 nM.

Turning to `C=CC(=O)N1CC2(CC(n3nc(N4CCN(C5COC5)CC4(CC)CC)c(-c4c(Cl)c(C)cc5[nH]ncc45)c3C)C2)C1` (single isomer, unassigned) [Example 152b, 1-(6-(4-(5-chloro-6-methyl-1H-indazol-4-yl)-3-(2,2-diethyl-4-(oxetan-3-yl)piperazin-1-yl)-5-methyl-1H-pyrazol-1-yl)-2-azaspiro[3.3]heptan-2-yl)prop-2-en-1-one], the IC50 stood at 45 nM.

Turning to `C=CC(=O)N1C[C@]2(C[C@H](n3nc(N4CC[C@@H](CN5CCN(C6COC6)CC5)CC4(C)C)c(-c4c(Cl)c(Cl)cc5[nH]ncc45)c3C)C2)[C@H]1C` (single isomer, unassigned) [Example 201b], the IC50 is 17 nM.

As for `C=CC(=O)N1CC2(CC(n3nc(N4C5CCC4CN(C(C)=O)C5)c(-c4c(Cl)c(C)cc5[nH]ncc45)c3C)C2)C1` (single isomer, unassigned) [Example 57b, 1-(6-(3-(3-acetyl-3,8-diazabicyclo[3.2.1]octan-8-yl)-4-(5-chloro-6-methyl-1H-indazol-4-yl)-5-methyl-1H-pyrazol-1-yl)-2-azaspiro[3.3]heptan-2-yl)prop-2-en-1-one], the IC50 was 216 nM.

Take `C=CC(=O)N1CC2(CC(n3nc(N4CC[C@@H](CN5CC6(COCCN6C)C5)CC4(C)C)c(-c4c(Cl)c(Cl)cc5[nH]ncc45)c3C)C2)C1` (single isomer, unassigned) [Example 291b]: the IC50 amounted to 8 nM.

`C=CC(=O)N1CC2(CC(n3nc(N4CCN(C(C)(C)C(=O)OC)CC45CCC5)c(-c4c(Cl)c(C)cc5[nH]ncc45)c3C)C2)C1` (single isomer, unassigned) [Example 180a, methyl 2-(5-(1-(2-acryloyl-2-azaspiro[3.3]heptan-6-yl)-4-(5-chloro-6-methyl-1H-indazol-4-yl)-5-methyl-1H-pyrazol-3-yl)-5,8-diazaspiro[3.5]nonan-8-yl)-2-methylpropanoate]: the IC50 is above 5000 nM.

For `C=CC(=O)N1CC2(CC(n3nc(N4CCC(CN5CCOCC5)CC4(C)CC)c(-c4c(Cl)c(C)cc5[nH]ncc45)c3C)C2)C1` (single isomer, unassigned) [Example 222a, 1-(6-(4-(5-chloro-6-methyl-1H-indazol-4-yl)-3-(2-ethyl-2-methyl-4-(morpholinomethyl)piperidin-1-yl)-5-methyl-1H-pyrazol-1-yl)-2-azaspiro[3.3]heptan-2-yl)prop-2-en-1-one], the IC50 came to 1100 nM.

`C=CC(=O)N1CC2(CC(n3nc(N4CCC(CN5CCS(=O)(=O)CC5)CC4(C)C)c(-c4c(Cl)c(Cl)cc5[nH]ncc45)c3C)C2)C1` (single isomer, unassigned) [Example 235b, 1-(6-(4-(5,6-dichloro-1H-indazol-4-yl)-3-(4-((1,1-dioxidothiomorpholino)methyl)-2,2-dimethylpiperidin-1-yl)-5-methyl-1H-pyrazol-1-yl)-2-azaspiro[3.3]heptan-2-yl)prop-2-en-1-one]: the IC50 is 10 nM.

As to `C=CC(=O)N1CC2(CC(n3nc(N4CC[C@@H](CN5CC(O)C(OC)C5)CC4(C)C)c(-c4c(Cl)c(Cl)cc5[nH]ncc45)c3C)C2)C1` (single isomer, unassigned) [Example 274a, 1-(6-(4-(5,6-dichloro-1H-indazol-4-yl)-3-((R)-4-(((3S*,4S*)-3-hydroxy-4-methoxypyrrolidin-1-yl)methyl)-2,2-dimethylpiperidin-1-yl)-5-methyl-1H-pyrazol-1-yl)-2-azaspiro[3.3]heptan-2-yl)prop-2-en-1-one], the IC50 is 795 nM.

For `C=CC(=O)N1CC2(CC(n3nc(N4CCC(N5CCOCC5)CC45CCC5)c(-c4c(Cl)c(C)cc5[nH]ncc45)c3C)C2)C1` (single isomer, unassigned) [Example 63b, 1-(6-(4-(5-chloro-6-methyl-1H-indazol-4-yl)-5-methyl-3-(8-morpholino-5-azaspiro[3.5]nonan-5-yl)-1H-pyrazol-1-yl)-2-azaspiro[3.3]heptan-2-yl)prop-2-en-1-one], the IC50 is 3100 nM.

Take `C=CC(=O)N1CC2(CC(n3nc(N4CCN(C[C@@H]5COCCO5)C[C@]4(C)COC)c(-c4c(Cl)c(C)cc5[nH]nc(N)c45)c3C)C2)C1` (single isomer, unassigned) [Example 118b]: the IC50 came out at 818 nM.

As for `Cc1cc2[nH]ncc2c(-c2c(N3CCN(C4COC4)CC34CCC4)nn(C3CC4(C3)CN(C(=O)[C@@H]3CO3)C4)c2C)c1Cl` [Example 139, (S)-(6-(4-(5-chloro-6-methyl-1H-indazol-4-yl)-5-methyl-3-(8-(oxetan-3-yl)-5,8-diazaspiro[3.5]nonan-5-yl)-1H-pyrazol-1-yl)-2-azaspiro[3.3]heptan-2-yl)(oxiran-2-yl)methanone], the 50% inhibitory concentration (IC50) stood at 450 nM.

As to `C=CC(=O)N1CC2(CC(n3nc(N4CCC(O)(CN5CCOCC5)CC4(C)C)c(-c4c(Cl)c(Cl)cc5[nH]ncc45)c3C)C2)C1` (single isomer, unassigned) [Example 238a, 1-(6-(4-(5,6-dichloro-1H-indazol-4-yl)-3-(4-hydroxy-2,2-dimethyl-4-(morpholinomethyl)piperidin-1-yl)-5-methyl-1H-pyrazol-1-yl)-2-azaspiro[3.3]heptan-2-yl)prop-2-en-1-one], the IC50 was 36 nM.

`C=CC(=O)N1CC2(CC(n3nc(N4CCC(CN5CC6COCC6C5)CC4(C)C)c(-c4c(Cl)c(Cl)cc5[nH]ncc45)c3C)C2)C1` (single isomer, unassigned) [Example 227b, 1-(6-(4-(5,6-dichloro-1H-indazol-4-yl)-3-(2,2-dimethyl-4-((tetrahydro-1H-furo[3,4-c]pyrrol-5(3H)-yl)methyl)piperidin-1-yl)-5-methyl-1H-pyrazol-1-yl)-2-azaspiro[3.3]heptan-2-yl)prop-2-en-1-one]: the 50% inhibitory concentration (IC50) was 8 nM.

Regarding `C=CC(=O)N1CC2(CC(n3nc(N4CCN(CC(C)(C)O)C[C@]4(C)CC)c(-c4c(Cl)c(C)cc5[nH]ncc45)c3C)C2)C1` (single isomer, unassigned) [Example 161a], the IC50 turned out to be 912 nM.

Turning to `C=CC(=O)N1CC2(CC(n3nc(N4CCN(C(C)=O)C[C@@H]4C(C)C)c(-c4c(Cl)c(C)cc5[nH]ncc45)c3C)C2)C1` (single isomer, unassigned) [Example 95b], the IC50 is 373 nM.

As to `C=CC(=O)N1CC2(CC(n3nc(N4CC[C@@H](CN(C)S(=O)(=O)N5CCN(C)CC5)CC4(C)C)c(-c4c(Cl)c(Cl)cc5[nH]ncc45)c3C)C2)C1` (single isomer, unassigned) [Example 304a], the IC50 was above 5000 nM.

With `C=CC(=O)N1CC2(CC(n3nc(N4CC[C@@H](CN5CCN(C)[C@H](CO)C5)CC4(C)C)c(-c4c(Cl)c(Cl)cc5[nH]ncc45)c3C)C2)C1` (single isomer, unassigned) [Example 270a], the IC50 was 2400 nM.

For the compound `C=CC(=O)N1CC2(CC(n3nc(N4CCC(N(C)[C@@H]5CCOC5)CC4(C)C)c(-c4c(Cl)c(C)cc5[nH]ncc45)c3C)C2)C1` (single isomer, unassigned) [Example 84b], the IC50 was 14 nM.

Consider `C=CC(=O)N1CC2(CC(n3nc(N4CCc5c(cnn5C)C4)c(-c4c(Cl)c(C)cc5[nH]ncc45)c3C)C2)C1` (single isomer, unassigned) [Example 11a, 1-(6-(4-(5-chloro-6-methyl-1H-indazol-4-yl)-5-methyl-3-(1-methyl-1,4,6,7-tetrahydro-5H-pyrazolo[4,3-c]pyridin-5-yl)-1H-pyrazol-1-yl)-2-azaspiro[3.3]heptan-2-yl)prop-2-en-1-one], for which the IC50 is above 50000 nM.

As to `C=CC(=O)N1CC2(CC(n3nc(N4CCN(C(C)C)CC45CCC5)c(-c4c(Cl)c(C)cc5[nH]ncc45)c3C)C2)C1` (single isomer, unassigned) [Example 131b, 1-(6-(4-(5-chloro-6-methyl-1H-indazol-4-yl)-3-(8-isopropyl-5,8-diazaspiro[3.5]nonan-5-yl)-5-methyl-1H-pyrazol-1-yl)-2-azaspiro[3.3]heptan-2-yl)prop-2-en-1-one], the IC50 turned out to be 76 nM.
